Assay results taken from paper PMC10948610, “Profiling of Petroselinum sativum (mill.) fuss phytoconstituents and assessment of their biocompatibility, antioxidant, anti-aging, wound healing, and antibacterial activities” (Frontiers in Nutrition, 2024).

Assays:
Assay in all cases: in vitro enzyme inhibition, optical density read-out
Assay type in all cases: biochemical
Details in all cases: positive control; substrate, pH and temperature not given
Elastase = target: T1, Elastase
T1 construct: gene CELA1; usual assay enzyme is native porcine pancreatic elastase, human neutrophil elastase possible
Excerpt: in vitro enzyme inhibition, optical density read-out on Elastase

Hyaluronidase = target: T2, Hyaluronidase
T2 construct: gene SPAM1; usual assay enzyme is native bovine testicular hyaluronidase
Excerpt: in vitro enzyme inhibition, optical density read-out on Hyaluronidase

Collagenase = target: T3, Collagenase
T3 construct: gene colG; usual assay enzyme is native clostridial collagenase, human MMP1 possible
Excerpt: in vitro enzyme inhibition, optical density read-out on Collagenase

SMILES | Elastase / IC50 (Elastase) | Hyaluronidase / IC50 (Hyaluronidase) | Collagenase / IC50 (Collagenase)
O=c1cc(CO)occ1O [Kojic acid] | 21.60 ± 0.9 µg/mL | 14.46 ± 0.6 µg/mL | 
O=c1c(O)c(-c2ccc(O)c(O)c2)oc2cc(O)cc(O)c12 [Quercetin] |  |  | 24.83 ± 1.8 µg/mL
